The text below walks through data of a melting point compilation (Tetko et al.; mined from patent text by program, amines drawn as free bases though some values may be those of a salt).

Usually melting point stands for the temperature, or range, at which the solid turns liquid. Regarding `Cc1cc(C2=C(C=CC3CC(O)CC(=O)O3)C(C)(C)CC(N3CCCC3)C2)ccc1F` (stereo not given), the melting point lay within 120 to 123 °C. Regarding `CNC(=NC#N)Nc1cccc(C(=O)NCCSCc2ccc(CN(C)C)o2)c1`, the melting point is 140 to 142 °C. In the case of `Cc1oc(-c2ccccc2)nc1CCOc1ccc(CCl)c2sccc12` it was 144 to 145 °C; in that of `C=CCOc1ccc(-c2cc(=O)c3c(O)cc(OCOC)cc3o2)cc1`, 100 to 101 °C; in that of `O=C1Nc2ccc(Br)cc2C1c1ncnc2c1cnn2C1CCCCC1` (stereo not given), 305 to 308 °C.

Regarding `CCOC(=O)c1nccn1-c1nc(-c2ccc(Cl)cc2)c(CCCOc2ccccc2OC)o1`, the melting point lay in the range of 90 to 91 °C. Next, `NS(=O)(=O)c1ccccc1OCC1CO1` (stereo not given): 132 to 133 °C. `CC(C)CC1NCC(C)(C)NC1=O` (stereo not given) showed a melting point of 140 to 144 °C. `C#CCOc1ccc(OC)cc1-c1nc2cnccc2[nH]1` had a melting point of 210 °C. Next, `CCOC(=O)c1cn(-c2ccc(F)cc2C)c2c(C)c([N+](=O)[O-])c(F)cc2c1=O`: 207 to 209 °C. In the case of `CC(=O)c1ccc(OCC=C(C)CSCc2ccccc2)cc1`, the melting point was in the range of 75 to 76.5 °C.

In turn, `CCCCc1nc2c(C(N)=O)cccc2n1Cc1ccc(-c2ccccc2-c2nnn[nH]2)cc1` had a melting point of 235 to 236 °C. For the compound `O=C(c1ccc(O)cc1)c1sc2cc(O)ccc2c1-c1ccccc1`, the melting point fell in the range of 198 to 200 °C. `COC1=C(Br)CO/C1=C\c1cccc2ccccc12` came in with a melting point of 143 to 148 °C. In turn, `O=C(Nc1ccc(F)cc1F)c1cncc(Sc2cccc([N+](=O)[O-])c2)n1` came in with a melting point of 131 to 135 °C. As to `Nc1ccc(OCc2nnco2)cc1`, the melting point was 56 to 57 °C.

The compound `CC(C)(C)OC(=O)Nc1cccc(-c2noc(CCC(=O)O)n2)c1` came in with a melting point of 143 to 144 °C.

The compound `COc1ccc(C(=O)c2ccccc2Cl)c(Cl)c1Cl` had a melting point of 117 to 120 °C. Turning to `CCCCCCCCOc1ccc(-c2cnc(-c3ccc(OCc4ccccc4)c(F)c3F)nc2)cn1`, the melting point is 120 °C. In the case of `CC(=C(F)F)c1cn(-c2c(Cl)cc(C(F)(F)F)cc2Cl)nc1C#N` it was 66 to 68 °C. Compound `COc1cc2c(c3c1OC(C)(C)C3)C(c1cccc(OCC(N)=O)c1)=NC(C)(C)C2` came in with a melting point of 172 to 174 °C. The compound `Cc1cnc(-c2ccncc2)nc1N` displayed a melting point of 210 to 213 °C. Consider `OCc1ccc(-c2ccc3nc(-c4ccc(Cl)cc4)cn3c2)o1`, for which the melting point is 197 to 199 °C. Next, `O=C(Nc1cccc(S(=O)(=O)N(CCO)CCO)c1)c1cnn2c(C(F)(F)F)cc(-c3ccc(C(F)(F)F)cc3)nc12`: 209 °C. In turn, `Cc1nnc(-c2cc3cccc(OC[C@@H](O)CN4CCC(c5ccc6ccccc6c5)CC4)c3o2)o1` gave a melting point of 140 to 142 °C.

Take `Cc1ccc2c(c1)C(C1=CCN(C(C)O)CC1)CC2(O)c1ccc(F)cc1` (stereo not given): the melting point lay within 177 to 178 °C. Next, `CN1C(=O)CC[C@]2(C)c3ccc(-c4ncccn4)cc3CC[C@@H]12`: 160 to 162 °C. On to `Cc1ccc(S(=O)(=O)OCC2Cc3c(Cl)cc4c(c3O2)CCC4)cc1` (stereo not given), for which the melting point was in the range of 95 to 97 °C. Next, `Nc1cc(C(=O)O)cc(S(N)(=O)=O)c1Oc1cccc(Cl)c1`: 239 to 240 °C; `CCCc1c(SCCCSc2ccc(-c3nnn[nH]3)cc2)ccc(C(C)=O)c1O`: 160 to 162 °C. In the case of `CC(=O)NC1CCc2c(n(C)c3ccccc23)C1` (stereo not given) it was 171 to 172 °C; in that of `Cc1cccc(C(=O)O)c1OC1CCOC1=O` (stereo not given), 129 to 131 °C.

`COc1cc(OC)c2c(C)c(CCCl)c(=O)oc2c1` displayed a melting point of 129 to 130 °C. `CN1CCC(O)(c2csc3ccccc23)CC1` came in with a melting point of 150 to 151 °C.

`CC(C)(C)C(NC(=O)c1ccc(Cl)cc1)NC(=NC#N)Nc1cc(F)cc(F)c1` (stereo not given) showed a melting point of 196 to 198 °C. In the case of `O=C(Nc1ccc2c(c1)OC(F)(F)O2)NC12CC3CC(CC(C3)C1)C2` it was 213 to 215 °C.

`CN(C)C(=O)Nc1ccc(O)c([N+](=O)[O-])c1` returned a melting point of 142 °C. On to `Cc1cc(C)c2c(c1C)OCC2c1cccc(Br)c1` (stereo not given), for which the melting point was in the range of 73 to 74 °C. For the compound `O=C1CN(C(=O)Cc2ccccc2Cl)N(Cc2ccc(Cl)cc2)C(=O)N1`, the melting point is 224 °C. In the case of `O=C(O)CCCc1cc2nc(C(F)(F)F)ccc2n1S(=O)(=O)c1ccc2c(c1)OCO2` it was 161 °C; in that of `CCN(CC)CCN(CCN1CCCCC1)c1ccc(-c2nc3ccccc3[nH]2)cc1`, 190 to 191 °C. `CC(C)(C)c1cc(CCc2ccccc2NC(=O)NCc2ccco2)cc(C(C)(C)C)c1O` registered a melting point of 170 °C. For the compound `CCOC(=O)C1=C(N)NC(N)=C(C(=O)OCC)C1c1cccc(C(F)(F)F)c1`, the melting point was found to be 170 °C. Take `Cc1ccc(Cc2cc(C)c(C)c(=O)n2O)c(C)c1`: the melting point worked out at 141 °C. Consider `Nc1nc2cc(Cl)c(Cl)cc2n1Cc1ccccc1`, for which the melting point fell in the range of 245 to 246 °C. In the case of `NC(=O)c1ccc(CCN2CC=C(c3c[nH]c(-c4ccc(F)cc4)c3-c3ccncc3)CC2)cc1` it was 202 to 204 °C. As to `Brc1c[nH]nc1-c1ccccc1`, the melting point lay in the range of 114 to 116 °C. In turn, `COc1ccc(-n2nc(C(=O)O)c3c2CCCC3)cc1` returned a melting point of 233 to 234 °C.

Turning to `COc1c(C(C)(C)C)cc(COc2ccc(C=C3SC(=S)NC3=O)cc2)cc1C(C)(C)C`, the melting point fell in the range of 213 to 218 °C. For `C[C@H](NC(=O)C1(C)Sc2ccccc2NC1=O)C(=O)N[C@H](CCC(=O)O)C(N)=O` (stereo not given in full), the melting point is 124 to 125 °C. In the case of `Cc1ccc(S(=O)(=O)N2C[C@@H](Cl)C[C@@H]2CCl)cc1` it was 103 to 105 °C; in that of `CNC(=O)c1ccc(OCC(O)CNC(C)C)nc1` (stereo not given), 118 to 120 °C. In the case of `C#CCOC1c2ccccc2Oc2ccccc21` it was 74 to 76 °C.

For `CC(C)Oc1ccc(-n2c(CC(=O)O)c(C(=O)O)c3cc(Oc4cccc(C(F)(F)F)c4)ccc32)cc1`, the melting point was 203 °C. The compound `O=C1c2cc(OCc3ccc4ccccc4n3)ccc2SCC1Cc1ccccc1` (stereo not given) yielded a melting point of 127 to 130 °C. For the compound `Cc1cc(C(F)(F)C(F)(F)F)nc(N(C(N)=O)c2ccccc2[N+](=O)[O-])n1`, the melting point amounted to 156 °C. Turning to `O=C(Nc1cccc2c1C(=O)c1c-2n[nH]c1-c1ccc(C(=O)N2CCC[C@H]2CO)s1)NN1CCOCC1`, the melting point is 267 to 268 °C. `O=C1O[C@H](CO)CN1c1ccc(C2CCCCC2)cc1` gave a melting point of 166 to 168 °C. For `O=C(O)CCc1cc2nc(Cl)ccc2n1S(=O)(=O)c1ccc2ncsc2c1`, the melting point was 248 °C. Compound `COc1nc(N)nc2c1ncn2/C=C1\CC1(CO)CO` returned a melting point of 179 to 180 °C.

Turning to `COc1ccc(-c2nccc(C(N)=O)c2N)cc1`, the melting point lay in the range of 179 to 181 °C.

`CC(=O)Nc1ccc(OC(F)(F)C(F)F)cc1[N+](=O)[O-]` gave a melting point of 80 to 81 °C. Next, `Cc1csc2nc(C(=O)NCc3cccc(CNC(=O)c4nc[nH]n4)c3)[nH]c(=O)c12`: 290 to 291 °C; `COc1ccc(-n2nc(C#N)cc2-c2ccc(S(C)(=O)=O)cc2)cc1Br`: 184 to 186 °C. In the case of `O=C(O)c1ccc(C(=O)/C=C/c2ccc(N3CCCC3)c(-c3cccs3)c2)cc1` it was 212 to 214 °C; in that of `CCN(CC)S(=O)(=O)c1ccc2c(c1)-c1c(nc(C)[nH]c1=O)CC2`, 249 to 251 °C; in that of `CCNC(=O)N1CCc2[nH]cnc2C1CCC1CCCCC1` (stereo not given), 210 to 212 °C. Consider `COc1ccc(C(=O)COc2ccc(C(=O)OCc3ccccc3)c(O)c2)cc1C(C)(C)C`, for which the melting point lay in the range of 98 to 99 °C.

Compound `C=CCC(CC)(NC)C(=O)c1ccc(OCCO)cc1` (stereo not given) returned a melting point of 80 to 82 °C. Next, `CCOC(=O)c1csc(-c2ccc([N+](=O)[O-])cc2)n1`: 156 to 158 °C; `O=C(O)CN1CN(c2ccccc2)C2(CCCCC2)C1`: 162 to 164 °C; `CC(C)CCC(=O)OC1c2ccccc2C(=O)N1c1ccc2ccc(Cl)nc2n1` (stereo not given): 147 °C. Next, `CCOC(=O)CC(=O)Nc1cc(F)cc(F)c1`: 42 to 45 °C; `CCCC=C(NC(=O)c1ccccc1)C(=O)OCC`: 68 to 70 °C; `CC(C)(C(=O)NC1CCCCC1)c1ccc(S(=O)(=O)/C=C/C#N)cc1`: 191 to 193 °C. For the compound `O=C(O)c1cn(C2CC2)c2nc(N3CCC(c4ccncc4)C3)c(F)cc2c1=O` (stereo not given), the melting point lay in the range of 223 to 225 °C. `CC(C)(C)c1ccc(Nc2ncc(-c3ccnc(Cl)n3)c3ccccc23)cc1` yielded a melting point of 257 to 258 °C. With `C[Si]1(C(CN)CC(=O)O)CCCCC1` (stereo not given), the melting point is 160 to 162 °C.

`CNC(=O)N1CCN(C(=O)CN2CCCC2=O)CC1`: the melting point lay in the range of 203 to 205 °C. Next, `O=C(Nc1ccc(CN2C(=O)C3CCCC3N(C(=O)CN3C(=O)c4ccccc4C3=O)c3ccccc32)cc1)Oc1ccccc1` (stereo not given): 185 to 187 °C.

As to `CCOC(=O)c1ccc(NCc2ccc3ccc4nc(C)[nH]c(=O)c4c3c2)cc1F`, the melting point was > 200 °C. In turn, `CC(=O)c1cc2c(c(Cl)c1O)OC(C(O)=NO)C2` (stereo not given) gave a melting point of 234 to 235 °C. In turn, `CCCOc1ccc(-c2cc(C)cn2-c2ccc(S(N)(=O)=O)cc2)cc1` gave a melting point of 142 to 145 °C. `CCc1c(OC)c(Cl)cc(C(N)=O)c1OC` showed a melting point of 83 to 84 °C. In the case of `ClC1=Nc2ccccc2Oc2ccccc21`, the melting point lay within 53 to 55 °C. In the case of `NC(=O)Nc1cccc2c1C(=O)c1c-2n[nH]c1-c1ccc(N2CCNCC2)cc1` it was 257 °C; in that of `CCSc1nc(O)nn1C(C)C`, 109 to 114 °C.

Turning to `CSc1ccc(/C=C/c2ccc(C(=O)O)cn2)cc1`, the melting point is 250 to 253 °C. In the case of `CCCCCCCCCCCCCCCC(=O)OC[C@H]1OCC(=NO)[C@@H](O)[C@@H]1O` it was 97 to 104 °C. Take `CC(/C=C/c1cscc1-c1ccc2c(c1)C(C)(C)CCC2(C)C)=C\C(=O)O`: the melting point fell in the range of 192 to 193 °C.
